Values joined by “and” are separate entries in the source; they are usually repeats but may differ in a detail not shown here. Equal values may be shown once. “Also recorded” adds a separate entry of the source. Read-outs that look alike come from different tables or passages of the source. Values belong to the compound of their own block, whether it stands above or below them.
Columns and labels:
[1] = tested on: photoreceptors (outer nuclear layer); experiment: Photoreceptor survival: ONL thickness in mice with type 3 choroidal NV; format: in vivo, rho/VEGF mice; details: for ONL thickness: Fig 5b, 40 µg, P42, individual eyes
[2] = tested on: choroidal NV at Bruch's membrane rupture sites; experiment: Mouse model of laser-induced choroidal NV (type 2); format: in vivo, C57BL/6 mice; details: for CNVsize: individual eyes
Method: Mice were treated in accordance with the Association for Research in Vision and Ophthalmology Guidelines on the care and use of animals in research. All protocols were approved by the Animal Care and Use Committee of the Johns Hopkins University School of Medicine. Laser photocoagulation-induced rupture of Bruch’s membrane was used to generate choroidal NV[34]. […] One week after rupture of Bruch’s membrane, mice were euthanized, eyes were removed, anterior segments, retinas, and vitreous was removed, and eye cups were stained with fluorescein isothiocyanate (FITC)-conjugated GSA (Vector Laboratories, Burlingame, CA), and flat mounted. Flat mounts were examined by fluorescence microscopy and the area of each choroidal NV was measured by image analysis with Image-Pro Plus software (Media Cybernetics, Silver Spring, MD) by an observer masked with respect to experimental groups. The three areas obtained in each eye were averaged to give a single experimental value.

[3] = tested on: vascular leakage (vitreous albumin); experiment: Measurement of albumin in vitreous samples (ELISA); format: in vivo, rho/VEGF mice
Source text: Vitreous samples were obtained by inserting a micropipette into the vitreous cavity and gently aspirating the vitreous. Using the manufacturer’s instructions, a mouse albumin ELISA kit (ab108791; […] The plate wa read at 450 and 570 nm with SpectraMax Plus (Molecular Devices, San Jose, CA).

VEGF-induced leukostasis = experiment: Retinal leukostasis (concanavalin A perfusion); format: in vivo, C57BL/6 mice; details: 40 µg
Method: Leukostasis was measured by staining leukocytes with rhodamine- or FITC-labeled conA[52]. […] Vector Labs Thermofisher). The vasculature was flushed for 4 min with PBS to remove residual unbound conn A. […] Retinas were examined by fluorescence microscopy and the number of intravascular leukocytes throughout the entire retina were counted by an investigator masked with respect to treatment group. […] After washing, retinas were incubated in Alexa Fluor 594-conjugated goat anti-rat secondary antibody (1:500; A-11007 Invitrogen) for 1 h at room temperature. Retinas were washed, flat mounted and examined by fluorescence microscopy.

subretinal NV = experiment: Subretinal NV in rho/VEGF transgenic mice (type 3 choroidal NV); format: in vivo; details: for Mean area of sunretinal NV per retina: Fig 4b, 40 µg at P14, individual retinas
Method: At P21, P28, P35, or P42, mice were euthanized and retinas were stained with FITC-labeled GSA lectin and flat mounted with photoreceptors facing up. Retinal flat mounts were examined by fluorescence microscopy and the area of subretinal NV was measured by image analysis by a masked observer.

rhodopsin kinase (GRK-1) = experiment: Photoreceptor survival: rhodopsin kinase (GRK-1)/actin immunoblot of retinal homogenates; format: in vivo, rho/VEGF mice
Method: At P42, some mice were euthanized and eyes were marked at the 12:00 pole and frozen in embedding compound. […] At […] five mice were euthanized and retinas were dissected from each eye and homogenized in 150 μl lysis buffer (Abcam, Cambridge, MA) followed by high speed centrifuge (16,000 × g, 15 min). Supernatants were collected in pre-chilled eppendorf tubes. […] Membranes were probed with anti-GRK1 antibody (1:1000; ThermoFischer Scientific, Catalog no. PA5-13725, Lot no. […] Catalog no. A2066, Lot no. 019M4777V, Sigma Life Science, St. Louis, MO) overnight at 4 °C. […] Louis, MO) was added followed by incubation in SuperSignal West Dura Extended Duration Substrate (Thermofisher), and Western blots were imaged and analyzed with a Bio-mad imaging system.

[4] = design: method as in rabbit PK study previously conducted by the authors; details: rabbit; ref rabbit PK study previously conducted by the authors; cited from earlier work
[5] = Pharmacokinetic study in mice (drug remaining in eye, LC-MS); format: in vivo, C57BL/6N mice; details: for Remaining Drug (Normalized against T0) (%): mouse eye, intravitreous 1 µg sunitinib or equivalent
Source text: Twenty male or female 5–7-week-old C57BL/6N mice were anesthetized and the pupils were dilated as previously described. […] […], 5 mice from each condition were euthanized and the whole globes were collected and transferred to a bioanalytical facility for measurement of drug levels by liquid chromatography–mass spectrometry (LC–MS). The amount of drug remaining in the eye at 30 days was compared to and presented as a percentage of the initial dose injected in the eye.

[6] = for Average release (%): Fig 1b dissolution of suspension
Method: At selected time points, 3 ml of the release medium was collected and replaced with 3 ml fresh release medium.

[7] = Melanin binding of sunitinib in vitro; format: in vitro ADME, sepia officialis; details: for percentage of melanin-bound sunitinib: 10 mg melanin in PBS, 1 h
[8] = cited from earlier work
[9] = Cataract after intravitreous injection in mice; format: in vivo, C57BL/6 mice; details: intravitreous doses of free sunitinib >0.5 µg
Source text: The murine model of laser-induced rupture of Bruch’s membrane results in choroidal NV that is similar to type 2 choroidal NV in patients with NVAMD, because the new vessels originate from the choroid and penetrate through Bruch’s membrane and the RPE into the subretinal space. Studies in this model helped to implicate VEGF as a critical stimulus for NVAMD[4] and predicted the clinical benefits seen with aflibercept, a recombinant VEGF-neutralizing protein commonly used to treat patients with NVAMD[6],[35].

Compound: aflibercept
mean ONL thickness vs PBS eyes ([1]; 40 µg at P14, measured at P42): no significant difference
ONL thickness ([1]; location I1): 0.0549 mm and 0.04725 mm and 0.03173 mm and 0.03578 mm and 0.03893 mm and 0.04095 mm and 0.03375 mm
ONL thickness ([1]; location I2): 0.0504 mm and 0.04905 mm and 0.03735 mm and 0.04072 mm and 0.04027 mm and 0.05108 mm and 0.0387 mm
ONL thickness ([1]; location I3): 0.05017 mm and 0.03982 mm and 0.03465 mm and 0.03645 mm and 0.0351 mm and 0.04972 mm and 0.04208 mm
ONL thickness ([1]; location S1): 0.04253 mm and 0.0441 mm and 0.03465 mm and 0.0414 mm and 0.04478 mm and 0.04545 mm
ONL thickness ([1]; location S2): 0.04208 mm and 0.05085 mm and 0.0423 mm and 0.04275 mm and 0.04905 mm and 0.03982 mm and 0.0504 mm
ONL thickness ([1]; location S3): 0.04163 mm and 0.0486 mm and 0.03825 mm and 0.04095 mm and 0.04455 mm and 0.03915 mm and 0.0495 mm
CNVsize ([2]; Fig 2d, intravitreous 40 µg, 1W): 0.008066 mm2 and 0.009648 mm2 and 0.01333 mm2 and 0.01287 mm2 and 0.01253 mm2 and 0.01268 mm2 and 0.009735 mm2 and 0.0107 mm2
CNVsize ([2]; Fig 2d, intravitreous 40 µg, 9W): 0.03895 mm2 and 0.02251 mm2 and 0.03758 mm2 and 0.02161 mm2 and 0.01535 mm2 and 0.02051 mm2 and 0.02183 mm2
CNVsize ([2]; Fig 2d, intravitreous 40 µg, 15W, listed as Alfibercept): 0.02431 mm2 and 0.01432 mm2 and 0.01526 mm2 and 0.01738 mm2 and 0.01801 mm2 and 0.01547 mm2
choroidal NV vs PBS fellow eye ([2]; intravitreous 40 µg, 1 week after injection): significant suppression; also recorded: significant reduction
Concentrate of Albmin ([3]; Fig 4d, vitreous, 1 week after 40 µg at P28, individual eyes): 0.1634 µg and 0.1282 µg and 0.1305 µg and 0.1935 µg and 0.4253 µg
mean vitreous albumin concentration vs PBS eyes ([3]; P28 rho/VEGF mice, 1 week after intravitreous 40 µg): significantly less; also recorded: significant reduction
mean number of adherent intravascular leukocytes vs PBS eyes (VEGF-induced leukostasis; 200 ng VEGF one week later, 24 h): significant reduction
Intravascular leukocytes per retina (VEGF-induced leukostasis; Fig 6a, individual retinas): 51 and 28 and 33 and 20 and 18 and 23 and 44 and 54
Mean area of sunretinal NV per retina (subretinal NV; P21): 0.006443 mm2 and 0.004033 mm2 and 0.006827 mm2 and 0.01579 mm2 and 0.001837 mm2 and 0.02155 mm2 and 0.01187 mm2 and 0.0074 mm2 and 0.009835 mm2 and 0.01142 mm2 and 0.01439 mm2 and 0.004674 mm2
Mean area of sunretinal NV per retina (subretinal NV; P28): 0.01232 mm2 and 0.01247 mm2 and 0.01867 mm2 and 0.01277 mm2 and 0.01806 mm2 and 0.01223 mm2 and 0.007648 mm2 and 0.002213 mm2 and 0.009102 mm2
Mean area of sunretinal NV per retina (subretinal NV; P35): 0.01325 mm2 and 0.02508 mm2 and 0.02389 mm2 and 0.02314 mm2 and 0.01559 mm2 and 0.02014 mm2 and 0.01286 mm2 and 0.008195 mm2 and 0.01062 mm2 and 0.006501 mm2 and 0.02165 mm2 and 0.01911 mm2 and 0.01968 mm2 and 0.008771 mm2 and 0.02218 mm2 and 0.008675 mm2
Mean area of sunretinal NV per retina (subretinal NV; P42): 0.01663 mm2 and 0.008316 mm2 and 0.01691 mm2 and 0.01919 mm2 and 0.01735 mm2 and 0.02425 mm2 and 0.00731 mm2 and 0.02809 mm2 and 0.01595 mm2
duration of inhibition of subretinal NV (subretinal NV; intravitreous 40 µg): 1 week
mean area of NV per retina vs PBS eyes (subretinal NV; intravitreous 40 µg at P14, P21): significantly less; also recorded: significantly lower
rhodopsin kinase/actin ratio vs PBS eyes (rhodopsin kinase (GRK-1); 40 µg at P14, P49): no difference
GRK-1/Actin (rhodopsin kinase (GRK-1); Fig 5d, 40 µg, P49, individual retinas): 0.8885 and 0.8156 and 1.021 and 0.9707 and 0.8036

half-life ([5]; both sexes, C57BL/6N, mouse, whole eye (globe), other: intravitreous injection, 1 µg, read-out: overall half-life in mouse eyes (converted)): ~50.4 h
Remaining Drug (Normalized against T0) (%) ([5]; day 7, listed as Sunitinib Suspension): 10.1%
Remaining Drug (Normalized against T0) (%) ([5]; day 7, listed as free sunitinib): 10.1±0.7%
Remaining Drug (Normalized against T0) (%) ([5]; day 30, listed as Sunitinib Suspension): 8.8%
Remaining Drug (Normalized against T0) (%) ([5]; day 30, listed as sunitinib drug suspension): 9%
Average release (%) ([6]; 0.125 days): 34.3%
Average release (%) ([6]; 1 day): 51.9%
Average release (%) ([6]; 3 days): 68.4%
Average release (%) ([6]; 10 days): 89.0%
Average release (%) ([6]; 17 days): 95.0%
Average release (%) ([6]; 24 days): 99.5%
Average release (%) ([6]; 30 days): 100.0%
percentage of drug bound to melanin ([7]; at a ratio of <10): 96–99.8%
percentage of melanin-bound sunitinib ([7]; sunitinib-to-melanin mass ratio 0.001%): 99.8%
percentage of melanin-bound sunitinib ([7]; sunitinib-to-melanin mass ratio 20%): ~ 80%
cataract [9]: severe cataract
Compound: CCN(CC)CCNC(=O)c1c(C)[nH]c(/C=C2\C(=O)Nc3ccc(F)cc32)c1C [sunitinib, reference compound]
vitreous half-life [4]: ~ 2 days
CNVsize ([2]; Fig 2c, intravitreous free sunitinib 0.1µg, 1 week): 0.01929 mm2 and 0.0114 mm2 and 0.03268 mm2 and 0.02288 mm2 and 0.01524 mm2 and 0.02254 mm2 and 0.02987 mm2 and 0.01948 mm2 and 0.01091 mm2
CNVsize ([2]; Fig 2c, intravitreous free sunitinib 0.5µg, 1 week): 0.008346 mm2 and 0.0258 mm2 and 0.01396 mm2 and 0.0209 mm2 and 0.02253 mm2 and 0.02124 mm2 and 0.01904 mm2 and 0.01077 mm2 and 0.02107 mm2 and 0.01493 mm2
mean area of choroidal NV vs PBS fellow eye ([2]; intravitreous 0.5 or 0.1 µg free sunitinib, 1 week): no significant difference; also recorded: no significant reduction
behaviour in release medium in vitro ([6]; Fig. 1b, open squares): rapidly eluted and dissolved in release medium
solubility in acidic aqueous solutions ([8]; pH 1.2–6.8): high solubility
aqueous solubility ([8]; pH 7.4): low aqueous solubility

— article PMC7000758 (Nature Communications, 2020)
